Data published in patent publication US20020174454A1, “Overexpression of ABI5 in plants to prevent precocious seed germination and to confer resistance to drought and high salt” (priority 2001, published 2002).

Key:
Assay type in all cases: in vivo, Arabidopsis thaliana
WT Ws plants = assay: Survival after drought treatment on absorbing papers, WT Ws plants treated with ABA for 10 days; conditions: +ABA 5 μM for 10 days, n = 30
Procedure: (§1) Seeds of Arabidopsis thaliana, ecotype Wassilewskija, Columbia or Landsberg erecta were surface sterilized in 50% commercial bleach (Clorox) and 0.05% Tween 20 as described (Lopez-Molina and Chua, 2000) and then plated on Murashige and Skoog (MS) medium (Murashige and Skoog, 1962) containing 0.8% (w/v) Bacto-Agar (Difco Laboratories). Plates were routinely kept for 3 days in the dark at 4° C. to break dormancy (stratification) and transferred thereafter to a tissue culture room under constant white fluorescent light (27 μmol.m^−2.s^−1) at 22° C. Seeds of abi1, abi3-I and abi4 were obtained from the Nottingham Arabidopsis Stock Center (NASC). For ABA treatments, seedlings were transferred to plates supplemented with ABA (mixed isomers, Sigma A7393) which was dissolved in methanol. Control plates contained equal amounts of methanol.
(§2) To test this hypothesis, we broke embryo dormancy of WT and abi5-4 seeds in the absence of ABA for 24 hours. Seeds were then transferred for an additional 10 days to media with or without ABA. After 10 days, ABA-treated WT mature embryos had germinated but were arrested in growth as described above, whereas abi5-4 or non-treated WT Ws plants were green and continued to grow. Plants were then water-stressed for different time intervals on absorbent papers before being allowed to recover in normal medium. […] This is in sharp contrast with abi5-4 embryos, none of which survived. abi5-4 plants were able to survive better with than without ABA (Table 1), although not to the same extent as WT. […] Indeed, abi5-4 plants grow more slowly on 5 μM ABA than on medium lacking it, whereas the growth of WT plants is completely arrested. This developmental difference may be responsible for the higher resistance to water depletion of ABA-treated abi5-4 plants (Table 1).

abi5-4 plants = assay: Survival after drought treatment on absorbing papers, abi5-4 plants treated with ABA for 10 days; conditions: abi5, +ABA 5 μM for 10 days, n = 30
Procedure: as §1, §2

ABI5 = ABI5 protein accumulation in WT Ws seeds/seedlings by Western blot
Description: RNA extraction and Northern blot hybridizations were done as described (Lopez-Molina and Chua, 2000). A DNA fragment encoding the ABI5 open reading frame was cloned into pET28a (Novagen) and the recombinant protein was induced and purified using a commercial kit according to the manufacturer's instructions (His trap, Amersham Pharmacia). Polyclonal anti-ABI5 antiserum was obtained from rabbits immunized with His-tagged ABI5. Standard methods using His-ABI5 coupled to a CNBr activated Sepharose 6-MB column (Amersham Pharmacia) were used to affinity purify specific ABI5 antibody from sera.
Plant protein extracts were resolved under reducing conditions using 10% SDS-polyacrylamide gels (Laemmli, 1970). […]
ABA concentrations (3-10 μM) that discriminate between abi5-4 mutants and WT under normal growth conditions were selected. […] Indeed, by immunoblot analysis, the ABI5 protein with a molecular mass of about 50 Kd was detected two days after stratification in the presence of ABA. […]
To determine whether the observed ABA-dependent accumulation of ABI5 levels was restricted to early development, we stratified WT seeds in the absence of ABA and then transferred the seedlings at different time intervals to a medium supplemented with 5 μM ABA (FIG. 3A). […] ABI5 levels were monitored by Western blot analysis. […] ABI5 levels were monitored by Western blot analyses as described for FIG. 1 (FIG. 3B).

HA-ABI5 = HA-ABI5 accumulation in WT/35S::HA-ABI5 transgenic lines by immunoblot; conditions: WT/35S::HA-ABI5 lines, anti-HA immunoblot
Procedure: Given the strong ABA-dependent ABI5 protein accumulation, we were interested to determine whether ABI5 protein stability is altered in the presence of ABA. For this purpose we generated WT/35S::HA-ABI5 transgenic lines constitutively expressing HA-ABI5 transcript. DNA manipulations were performed according to standard methods (Sambrook et al., 1989). 35S constructs were generated using a binary vector (Kost et al., 1998). Transgenic Arabidopsis lines (Ws ecotype) were generated using the Agrobacterium tumefaciens vacuum-infiltration method (Bechtold and Pelletier, 1998). Seeds (T1) from infiltrated plants were plated on MS medium containing 10 mg/L gluphosinate ammonium (Crescent Chemical) and 100 mg/L cefotaxime (Sigma).
In these lines, HA-ABI5 accumulation is 5-10 fold higher in the presence of ABA as shown by immunoblot analysis using anti-HA antibodies. 8-day old Ws/35S::HA-ABI5 seedlings (T3 generation) were transferred to MS medium with or without 50 μM ABA. Proteins were extracted at 0 hours, 10 minutes, 1 hour, 2 hours and 30 minutes, and 6 hours and ABI5 protein levels were monitored by Western blot analysis using antibodies to HA (FIG. 2A; each lane contains 5 μg protein). […] Equal amounts (5 μg) of protein were loaded on a 10% SDS-polyacrylamide (Novex) gel and analyzed by Western blots using rabbit antibody to HA (1:3,000; Santa Cruz).

WT Ws seeds = assay: Germination and early growth arrest of WT seeds on ABA plates
Procedure: as §1
Given the ABA-insensitivity of abi5-4 mutant and the timing of ABI5 induction upon ABA exposure, we studied the effect of ABA on growth during early development. […] Virtually all WT seeds were fully germinated on 5 μM ABA only 5 days post-stratification (FIG. 3C). Similar results were obtained with different Ws seed batches and for the ecotypes Landsberg and Columbia. At 10 μM ABA, complete germination was observed 8 days post-stratification (FIG. 3D). […] ABI5 levels remained constant as long as ABA was present. […] Upon ABA removal, all of the embryos started to green and resumed normal growth.

[1] = tested on: Ws/35S::HA-ABI5 transgenic plants; assay: Germination and growth of ABI5 overexpressing transgenic seeds on ABA
Procedure: To determine whether the presence of ABI5 is sufficient to arrest growth in the absence of ABA, we expressed the ABI5 gene from a constitutive promoter. Transgenic Arabidopsis lines expressing ABI5 under the control of the cauliflower mosaic virus 35S promoter in WT Ws or abi5-4 backgrounds were generated and several independent lines expressing various levels of ABI5 were obtained. WT Ws and Ws/35S::HA-ABI5 transgenic plants were grown for 5 days with 0, 0.5 and 5 μM ABA. In the transgenic line shown in FIG. 5A, ABI5 levels in absence of ABA were at least five fold higher than that in WT plants grown in the presence of ABA. Transgenic seeds were arrested in development at 0.5 μM ABA and only started to germinate after 5 days (FIG. 5A). WT Ws seeds were insensitive to 0.5 μM ABA and were fully germinated in 5 μM ABA after 5 days (FIG. 5A). Despite the accumulation of ABI5, the lines germinated and developed normally in the absence of ABA.
We next investigated the effect of ABA in ABI5 overexpressing lines. Addition of 5 μM ABA severely delayed germination by at least 7 days and blocked mature embryo growth in several lines. To measure more precisely the ABA response, we plated WT/35S::HA-ABI5 transgenic seeds on growth media containing different ABA concentrations. Treatment of WT/35S::HA-ABI5 plants with 0.5 μM ABA was sufficient to phenocopy the response of WT plants exposed to 5 μM ABA (FIG. 5A).

[2] = tested on: Ws/35S::HA-ABI5 transgenic lines; assay: ABA inhibition of root growth, ABI5-overexpressing lines; conditions: 5-day old seedlings, 5 and 10 μM ABA for 5 days, n=15
Procedure: (§3) The following methods were used in obtaining the further results described below. WT Ws seedlings and transgenic Ws seedlings carrying 35S::HA -ABI5 (WT/35S::HA -ABI5, T3 generation) were germinated and grown for 5 days on MS medium without ABA. Seedlings were then transferred to plates containing 5 μM ABA, and subsequent root growth was scored after 5 days. Values were expressed as the average ±SD of 15 seedlings. For water loss measurement, young rosette leaves at the same developmental stage were excised from WT Ws, WT/35S::HA-ABI5 and abi1 plants and weighed at the different times indicated (n=3).
(§4) At 0.5 μM ABA, WT plants grew normally (FIG. 5A). Inhibition of root growth by ABA was unaffected in abi5-4 mutants but was exacerbated in ABI5-overexpressing lines (FIG. 5B). Five-day old seedlings grown in the absence of ABA were transferred to 0, 5 and 10 μM ABA plates for 5 days. The root length of ABA-treated seedlings was expressed as a percentage of non-treated controls (n=15).

abi5-4 mutants = assay: ABA inhibition of root growth, abi5-4 mutants
Procedure: as §3, §4

CC1=CC(=O)CC(C)(C)[C@@]1(O)/C=C/C(C)=C\C(=O)O [ABA, Abscisic acid]
Percentage of survival after different period of drought treatment (hours) (WT Ws plants; 0 hours drought): 100%
Percentage of survival after different period of drought treatment (hours) (WT Ws plants; 8 hours drought): 100%
Percentage of survival after different period of drought treatment (hours) (WT Ws plants; 12 hours drought): 98%
Percentage of survival after different period of drought treatment (hours) (WT Ws plants; 24 hours drought): 90%
Percentage of survival after different period of drought treatment (hours) (WT Ws plants; 36 hours drought): 84%
Percentage of survival after different period of drought treatment (hours) (abi5-4 plants; 0 hours drought): 100%
Percentage of survival after different period of drought treatment (hours) (abi5-4 plants; 8 hours drought): 97%
Percentage of survival after different period of drought treatment (hours) (abi5-4 plants; 12 hours drought): 55%
Percentage of survival after different period of drought treatment (hours) (abi5-4 plants; 24 hours drought): 20%
Percentage of survival after different period of drought treatment (hours) (abi5-4 plants; 36 hours drought): 0%
developmental window of efficient induction of ABI5 accumulation (ABI5; WT Ws transferred to 5 μM ABA plates): 48-60 hours post-stratification
increase of ABI5 protein level in the presence of ABA (ABI5; WT Ws, 5 μM ABA, first two days post-stratification): at least 10 fold
HA-ABI5 accumulation higher in the presence of ABA (HA-ABI5): 5-10 fold
response of WT Ws seeds to ABA (WT Ws seeds; 0.5 μM ABA, 5 days): insensitive
time after which all seeds fully germinate in the presence of ABA (WT Ws seeds; ABA concentration range 3 to 10 μM): 10 days
embryos remaining white and quiescent, not growing (WT Ws seeds; WT germinated embryos kept on ABA for at least a month, n=200): 95%±3
time at which virtually all seeds were fully germinated (WT Ws seeds; WT seeds, 5 μM ABA): 5 days post-stratification
time at which complete germination was observed (WT Ws seeds; WT seeds, 10 μM ABA): 8 days post-stratification
delay of germination ([1]; ABI5 overexpressing lines, 5 μM ABA): at least 7 days
ABA concentration sufficient to phenocopy the response of WT plants exposed to 5 μM ABA ([1]; WT/35S::HA-ABI5 plants): 0.5 µM
time after which arrested transgenic seeds started to germinate ([1]; Ws/35S::HA-ABI5 seeds, 0.5 μM ABA): 5 days
inhibition of root growth by ABA compared with WT Ws [2]: exacerbated
inhibition of root growth by ABA (abi5-4 mutants): unaffected
